# Test results published in US20120264902A1 (The Regents of the University of Colorado, a body corporate, priority 2011, published 2012).
# Read-outs that look alike come from different tables or passages of the source.
# Key:
# E. Coli Mach1-T1® = assay: MIC of 3-HP, microaerobic, 96-well, MOPS minimal media (Examples 2 and 4); type: cell-based, Escherichia coli; conditions: supplement added to MOPS minimal media, 24 hours
# E. Coli K12 = type: cell-based, Escherichia coli; conditions: E. Coli K12, M9 minimal media, control or supplemented, aerobic, 24 hours
# Procedure: Overnight cultures of strains were grown in 5 ml LB (with antibiotic where appropriate) at 37° C. in a shaking incubator. A 1 v/v % was used to inoculate 10 mL of M9 minimal media. After the cells reached mid-exponential phase, the culture was diluted to an OD600 of 0.200. The cells were further diluted 1:20 and a 10 ul aliquot was used to inoculate each well (˜10^4 cells per well). […] The MIC endpoint is the lowest concentration of compound at which there was no visible growth.
# [1] = system: Yeast strains, S288 C background; assay: Yeast aerobic MIC evaluation (Tables 13 and 15); type: cell-based; conditions: Saccharomyces cerevisiae, read-out: Average MIC Assay Result (g/L 3-HP), S288C, SD media, aerobic, MIC of 3-HP with the named supplement (label 3-HP = no supplement)
# Procedure: The minimum inhibitory concentration (MIC) was determined aerobically in a 96 well-plate format. […] A 1% (v/v) inoculum was introduced into a 5 ml culture of SD minimal media without vitamins. After the cells reached mid-exponential phase, the culture was diluted to an OD600 of 0.200. The cells were further diluted 1:5 and a 10 μL aliquot was used to inoculate each well of a 96 well plate (˜10^4 cells per well) to total volume of 100 uL. […] Plates were incubated for 72 hours at 30 C.
# [2] = system: Yeast strains, S288 C background; assay: Yeast anaerobic MIC evaluation (Tables 14 and 16); type: cell-based, Saccharomyces cerevisiae; conditions: for MIC: Saccharomyces cerevisiae, read-out: Average MIC Assay Result (g/L 3-HP)
# Procedure: The minimum inhibitory concentration (MIC) was determined anaerobically in a 96 well-plate format. […] A 1% (v/v) inoculum was introduced into a 5 ml culture of SD minimal media without vitamins. After the cells reached mid-exponential phase, the culture was diluted to an OD600 of 0.200. The cells were further diluted 1:5 and a 10 μL aliquot was used to inoculate each well of a 96 well plate (˜10^4 cells per well) to total volume of 100 uL. […] Plates were incubated for 72 hours at 30 C. […] Plates were sealed in biobag anaerobic chambers that contained gas generators for anaerobic conditions and incubated for 72 hours at 30 C.
# E. Coli BW25113 [3] = assay: MIC evaluation general protocol, E. Coli aerobic (Tables 6 and 8); type: cell-based; conditions: for average MIC Assay Result (g/L 3-HP): MIC of 3-HP for strain BW25113 in M9 media with the named supplement(s); for % Increase Over Control: increase of 3-HP MIC vs BW25113 in M9 without supplement
# Procedure: The minimum inhibitory concentration (MIC) was determined aerobically in a 96 well-plate format. […] Overnight cultures of strains were grown in triplicate in 5 mL LB (with antibiotic where appropriate). A 1% (v/v) inoculum was introduced into a 5 ml culture of M9 minimal media.
# (§1) For the above MIC evaluations, the final results are expressed in chemical agent concentrations determined by analysis of the stock solution by HPLC (i.e., see Subsection Mb).
# E. Coli BW25113 [4] = assay: MIC evaluation general protocol, E. Coli anaerobic (Tables 7 and 9); type: cell-based; conditions: for MIC: Escherichia coli, read-out: MIC Assay Result (g/L 3-HP); for % Increase Over Control: MIC vs BW25113 in M9 without supplement
# Procedure: The minimum inhibitory concentration (MIC) was determined anerobically in a 96 well-plate format. […] Overnight cultures of strains were grown in triplicate in 5 mL LB (with antibiotic where appropriate). A 1% (v/v) inoculum was introduced into a 5 ml culture of M9 minimal media.
# as §1
# B. subtilis = assay: MIC evaluation general protocol, B. subtilis aerobic (Table 11); type: cell-based, Bacillus subtilis; conditions: B. subtilis 168, M9 + glu + trp, growth with 3-HP and the named supplement (label 3-HP = no supplement)
# Procedure: The minimum inhibitory concentration (MIC) was determined aerobically in a 96 well-plate format. […] Overnight cultures of strains were grown in triplicate in 5 mL LB (with antibiotic where appropriate). A 1% (v/v) inoculum was introduced into a 5 ml culture of M9 minimal media+glutamate.
# [5] = Preparation of neutralized 3-HP stock solution (observation at neutral pH); type: physicochemical; conditions: pH 7, aqueous buffer
# Source text: (§2) 3-HP was obtained from TCI America (Portland, Oreg.). Significant acrylic acid and 2-oxydipropionic contamination was observed via HPLC analysis. Samples were subsequently treated by diethyl ether extraction to remove acrylic acid and a portion of the 2-oxydipropionic contaminants. Samples were then neutralized with 10 M NaOH to a final pH of 7.0. […] The working stock solution was used for the selection and MIC evaluations in this example.
# as §2, with “selection, growth rates” for “selection”
# MACH1™-T1® E. Coli = assay: IroK expression study, microaerobic MIC, MOPS minimal media, 1 mM IPTG; type: cell-based; conditions: IroK expressed from pKK223-3; data not shown
# Procedure: The two oligonucleotides were added in a 1:1 ratio and annealed according to standard methodology in a thermal cycler. Ligation of the annealed primer product with the pKK223-3 expression vector (SEQ ID NO:008, Pharmacia, Piscataway, N.J.) was performed with T4 Ligase (Invitrogen, Carlsbad, Calif.) and incubated at 25° C. overnight. The ligation product was then electroporated into competent MACH1™-T1®, plated on LB+ampicillan, and incubated at 37° C. for 24 hours. Plasmids were isolated and confirmed by purification and subsequent restriction digest and sequencing (Macrogen, Rockville, Md.). MICs were then determined corresponding to 1 mM IPTG induction.
# The minimum inhibitory concentration (MIC) was determined microaerobically in a 96 well-plate format. Overnight cultures of strains were grown in 5 mL LB (with antibiotic where appropriate). A 1% (v/v) inoculum was introduced into a 15 ml culture of MOPS minimal media. After the cells reached mid-exponential phase, the culture was diluted to an OD600 of 0.200. The cells were further diluted 1:20 and a 10 μL aliquot was used to inoculate each well of a 96 well plate (˜10^4 cells per well).
# [6] = BW25113, M9 with supplements at Table 3 levels (or EZ Rich), anaerobic, 24 hours
compound,measurement,setting,value
CCC(=O)C(=O)O [2-oxobutyrate],MIC increases (3-HP) with supplementation,E. Coli Mach1-T1®,7%
"O=C([O-])O.[Na+] [Bicarbonate, sodium bicarbonate]",Minimum inhibitory concentration (MIC) of 3-HP,E. Coli K12,30 mg/mL
NC(=O)NCCC[C@H](N)C(=O)O [Citrulline (C)],MIC,[1],58 g/L
same,MIC,[2],97 g/L
"O=C(O)c1cccc(O)c1O [Dihydroxybenzoate, 2,3-dihydroxybenzoic acid]",average MIC Assay Result (g/L 3-HP),E. Coli BW25113 [3],35 g/L 3-HP
same,% Increase Over Control,E. Coli BW25113 [3],27%
same,MIC increases (3-HP) with supplementation,E. Coli Mach1-T1®,33%
same,MIC,E. Coli BW25113 [4]; [6],40 g/L
same,% Increase Over Control,E. Coli BW25113 [4]; anaerobic,33%
N[C@@H](CCS)C(=O)O [Homocysteine],average MIC Assay Result (g/L 3-HP),E. Coli BW25113 [3],30 g/L 3-HP
same,% Increase Over Control,E. Coli BW25113 [3],9%
same,% Increase Over Control,"[2]; S288C, SD media, anaerobic, MIC with supplement vs no supplement",7%
same,MIC,[2],40 g/L
N[C@@H](CCO)C(=O)O [Homoserine],MIC increases (3-HP) with supplementation,E. Coli Mach1-T1®,33%
same,MIC,E. Coli BW25113 [4]; [6],30 g/L
same,% Increase Over Control,E. Coli BW25113 [4]; anaerobic,0%
CC[C@H](C)[C@H](N)C(=O)O [Isoleucine (B)],MIC,[2],38 g/L
NCCCC[C@H](N)C(=O)O [Lysine],MIC,[2],45 g/L
same,MIC,"E. Coli BW25113 [4]; BW25113, 24 h",41.7 g/L
CSCC[C@H](N)C(=O)O [Methionine],MIC,E. Coli BW25113 [4]; [6],42.8 g/L
same,% Increase Over Control,E. Coli BW25113 [4]; anaerobic,43%
N[C@@H](Cc1ccccc1)C(=O)O [Phenylalanine],MIC increases (3-HP) with supplementation,E. Coli Mach1-T1®,33%
same,MIC,E. Coli BW25113 [4]; [6],32.1 g/L
same,% Increase Over Control,E. Coli BW25113 [4]; anaerobic,7%
NCCCCN [Putrescine],MIC,E. Coli BW25113 [4]; [6],35 g/L
same,% Increase Over Control,E. Coli BW25113 [4]; anaerobic,17%
N[C@@H](CO)C(=O)O [Serine],MIC,[2],45 g/L
same,MIC,E. Coli BW25113 [4]; [6],32.1 g/L
O=C(O)C1=C[C@@H](O)[C@@H](O)[C@H](O)C1 [Shikimate (A)],MIC,[1],80 g/L
same,MIC,[2],60 g/L
NCCCCNCCCN [Spermidine],MIC,E. Coli BW25113 [4]; [6],35 g/L
same,% Increase Over Control,E. Coli BW25113 [4]; anaerobic,17%
"O=C(O)CCO [Strain 3-HP, 3-hydroxypropionic acid]",Avg 24 hr ΔOD600,B. subtilis,0.04
same,solubility,[5],> 35 mg/mL
C[C@@H](O)[C@H](N)C(=O)O [Threonine],MIC increases (3-HP) with supplementation,E. Coli Mach1-T1®,3%
N[C@@H](Cc1c[nH]c2ccccc12)C(=O)O [Tryptophan],MIC increases (3-HP) with supplementation,E. Coli Mach1-T1®,33%
N[C@@H](Cc1ccc(O)cc1)C(=O)O [Tyrosine],MIC increases (3-HP) with supplementation,E. Coli Mach1-T1®,40%
CC(=O)O [acetic],MICs of other organic acids with IroK expression,MACH1™-T1® E. Coli,unchanged
"C=CC(=O)O [acrylic, acrylic acid]",MICs of other organic acids with IroK expression,MACH1™-T1® E. Coli,unchanged
Cl.NC1CCSC1=O (stereo not drawn) [homocysteine thiolactone hydrochloride],MIC increases (3-HP) with supplementation,E. Coli Mach1-T1®,60%
CC(O)C(=O)O (stereo not drawn) [lactic],MICs of other organic acids with IroK expression,MACH1™-T1® E. Coli,unchanged
Nc1ccc(C(=O)O)cc1 [p-aminobenzoate],MIC increases (3-HP) with supplementation,E. Coli Mach1-T1®,7%
NNC(=O)c1ccc(O)cc1 [p-hydroxybenzoic acid hydrazide],MIC increases (3-HP) with supplementation,E. Coli Mach1-T1®,33%
Cc1ncc(CO)c(CO)c1O.Cl [pyridoxine hydrochloride],MIC increases (3-HP) with supplementation,E. Coli Mach1-T1®,0%
Tetrahydrofolate,average MIC Assay Result (g/L 3-HP),E. Coli BW25113 [3],30 g/L 3-HP
same,% Increase Over Control,E. Coli BW25113 [3],9%
same,MIC Assay Result (g/L 3-HP),E. Coli BW25113 [4]; [6],40.0 g/L
same,% Increase Over Control,E. Coli BW25113 [4]; anaerobic,33%
